Columns and labels:
curly tail model = conditions: cited from earlier work
[1] = tested on: phosphatidyl inositol (PI3K) signaling pathway; assay: Example 6: cultured curly tail mice embryos, PNP closure; conditions: embryos cultured from E9.5 to E10.5, in vitro
Experimental: To determine whether the downstream targets of the phosphatidyl inositol (PI3K) signaling pathway could be effected by an inhibitor, we can use […] to inhibit the effect of inositol on neural tube closure. The curly tail mice embryos are cultured from E9.5 to E10.5, and the length of unclosed neural folds at the pnp are measured to indicate predisposition to spina bifida. Embryos which are exposed to the kinase inhibitor alone have enlarged PNP's, reflecting the in vivo development of spinal NTD's by 50%-60% of curly tail embryos.

[2] = Example 4: men on androgen ablative therapy, male breast cancer; assay type: in vivo; conditions: prior to and throughout androgen ablative therapy; compared to controls
Excerpt: Men preparing to initiate androgen ablative therapy are initiated on a course of D-chiroinositol prior to and throughout the treatment with the androgen ablative therapeutic.

[3] = Example 2: females at risk of fetal malformations, treatment from before conception through first trimester; assay type: in vivo; conditions: once daily from before conception through the end of the first trimester; relative to the untreated controls
Experimental: Females determined to be at risk of fetal malformations and who are seeking a further pregnancy are split into no treatment, folate treatment, D-chiroinositol treatment, and Folate+D-chiroinositol treatment arms. The respective regimens are administered once daily from before conception through the end of the first trimester. Relative to the untreated controls, the frequency of fetal malformations is reduced in each of the non-control arms.

[4] = Example 7: fetal alcohol syndrome related defects in offspring of alcohol treated rats; assay type: in vivo; conditions: given before and during the alcohol treatment; versus inositol free alcohol treated group
Experimental: Female rats are administered alcohol for 2 weeks and then mated. The alcohol administration continues through out pregnancy and the rate of fetal alcohol syndrome related defects in the offspring are noted. A second set of rats from the same strain are mated without having the alcohol treatment as a control and the rate of defects of the same type as noted in the first arm are noted. […] A third arm of the study includes rats that are administered D-chiroinositol or a phosphorylate thereof before and during the alcohol treatment and are otherwise treated in the same manner as in the alcohol treatment above.

PKB = conditions: increasing extracellular Ins(1,3,4,5,6)P5; cited from earlier work
PDK1 [5] = target: T1, PDK1 (Homo sapiens, UniProt O15530); conditions: phosphorylation of the PDK tide peptide substrate by PDK1; cited from earlier work
T1 sequence (O15530 1-556): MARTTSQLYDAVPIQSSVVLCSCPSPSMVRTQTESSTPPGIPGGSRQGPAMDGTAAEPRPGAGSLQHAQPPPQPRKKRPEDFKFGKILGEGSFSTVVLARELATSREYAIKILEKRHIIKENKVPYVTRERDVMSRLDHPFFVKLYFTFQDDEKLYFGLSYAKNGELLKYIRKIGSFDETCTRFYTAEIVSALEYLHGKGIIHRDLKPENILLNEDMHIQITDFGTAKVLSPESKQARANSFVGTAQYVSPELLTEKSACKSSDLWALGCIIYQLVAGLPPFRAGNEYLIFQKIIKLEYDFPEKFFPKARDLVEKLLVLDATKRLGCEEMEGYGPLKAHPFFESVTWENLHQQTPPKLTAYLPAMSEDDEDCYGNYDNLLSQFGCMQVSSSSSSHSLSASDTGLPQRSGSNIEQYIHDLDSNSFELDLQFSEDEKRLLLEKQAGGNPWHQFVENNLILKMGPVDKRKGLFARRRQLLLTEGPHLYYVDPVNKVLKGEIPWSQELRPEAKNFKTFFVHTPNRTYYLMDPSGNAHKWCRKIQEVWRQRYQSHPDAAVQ

PDK1 [6] = target: T1, PDK1; conditions: cited from earlier work
Shh signaling [7] = conditions: explants from mice at 13.5 days of gestation, six to eight days in culture; cited from earlier work
hedgehog signaling = conditions: cultured neonatal mouse ovaries; cited from earlier work
amyloid β deposits = conditions: in vivo; cited from earlier work
[8] = taken before conception and during early pregnancy; cited from earlier work
[9] = China 1993 to 1995; 3.1 per 10,000 births for those not taking folic acid; cited from earlier work
Shh signaling [10] = assay: Example 5: curly tail mice embryos, spinal and genitourinary defects; assay type: in vivo; conditions: D-chiroinositol vs. myoinositol
Experimental: These embryos are exposed to the present invention compound D-chiroinositol vs. myoinositol and internal examination is conducted.

MDA-MB 231 cells = conditions: cited from earlier work
PDAC cells = conditions: in vitro; cited from earlier work
[11] = tested on: Colo357, BxPc3, or PancTuI tumors; design: reduction of metastasis / reduction of the number of liver metastases / reduction of volumes of recurrent tumors: concentration or dose not given beside the values; conditions: cited from earlier work; for reduction of the number of liver metastases / reduction of volumes of recurrent tumors: mouse, in vivo
[12] = severe combined immunodeficient mice, orthotopic tumors

O[C@H]1[C@H](O)[C@H](O)[C@@H](O)[C@@H](O)[C@H]1O [D-chiroinositol, D-chiro-inositol]
frequency of spina bifida (curly tail model; curly tail model, compound alone): reduced frequency of spina bifida in this model to a greater extent than myo-inositol alone | PNP closure [1]: normalizes PNP closure | frequency of male breast cancer [2]: substantially reduced | frequency of fetal malformations [3]: reduced | rate of fetal alcohol syndrome defects [4]: substantially less

O=P(O)(O)OC1[C@@H](OP(=O)(O)O)[C@H](OP(=O)(O)O)C(O)[C@H](OP(=O)(O)O)[C@H]1OP(=O)(O)O (stereo partly shown) [Ins(1,3,4,5,6)P5]
PKB activation in cells (PKB): lowered PKB activation | direct inhibition of PDK1 catalytic activity (PDK1 [5]): did not directly inhibit

O=P(O)(O)O[C@@H]1[C@H](O)[C@H](O)[C@@H](OP(=O)(O)O)[C@H](OP(=O)(O)O)[C@H]1O [Ins(1,4,5)P3]
binding to PDK1 (PDK1 [6]): could not be detected

O=P(O)(O)O[C@H]1[C@H](OP(=O)(O)O)[C@@H](OP(=O)(O)O)[C@H](OP(=O)(O)O)[C@@H](OP(=O)(O)O)[C@H]1OP(=O)(O)O [InsP6]
direct inhibition of PDK1 catalytic activity (PDK1 [5]): did not directly inhibit

CC1=C2C[C@H]3[C@@H](CC=C4C[C@@H](O)CC[C@@]43C)[C@@H]2CC[C@]12O[C@@H]1C[C@H](C)CN[C@H]1[C@H]2C [cyclopamine]
morphogenesis of vibrissa follicles (Shh signaling [7]): striking inhibition of morphogenesis | induced expression of hedgehog target genes Ptch1 and Gli1 (hedgehog signaling): inhibits this induced expression of target genes

OC1C(O)C(O)C(O)C(O)C1O (stereo not drawn) [epi-inositol]
efficacy in Alzheimer's disease (amyloid β deposits, cognitive ability) (amyloid β deposits): only worked at all when given before disease onset

Nc1nc(O)c2nc(CNc3ccc(C(=O)N[C@@H](CCC(=O)O)C(=O)O)cc3)cnc2n1 [folic acid]
reduction of the risk of the fetus developing a neural tube defect [8]: about 70% | frequency of fetal malformations [3]: reduced | rate of imperforate anus [9]: 1.6 per 10,000 births

O[C@H]1[C@H](O)[C@@H](O)[C@H](O)[C@@H](O)[C@H]1O [myo-inositol]
incidence of neural tube defects (curly tail model; mouse models that are folate resistant): reduced the incidence of neural tube defects | severity of spinal and genitourinary defects in embryos (Shh signaling [10]): severe compared to those embryos treated with D-chiroinositol | efficacy in Alzheimer's disease (amyloid β deposits, cognitive ability) (amyloid β deposits): not to be effective

O=P(O)(O)O[C@H]1[C@H](OP(=O)(O)O)[C@@H](OP(=O)(O)O)[C@H](OP(=O)(O)O)[C@@H](OP(=O)(O)O)[C@H]1OP(=O)(O)O [myoinositol hexaphosphate]
secretion of MMP-9 (MDA-MB 231 cells): significantly inhibits

O[C@H]1[C@H](O)[C@@H](O)[C@H](O)[C@@H](O)[C@@H]1O [scyllo-inositol]
efficacy in Alzheimer's disease (amyloid β deposits, cognitive ability) (amyloid β deposits): prevent the accumulation of amyloid β deposits and improved cognitive ability

etanercept
effect on proliferation and invasiveness of PDAC cells (PDAC cells): only marginally affected | reduction of the number of liver metastases [11]: 42% | reduction of volumes of recurrent tumors [11]: 51%

infliximab: human-specific anti-TNF antibody
effect on proliferation and invasiveness of PDAC cells (PDAC cells): only marginally affected | reduction of the number of liver metastases [11]: 69% | reduction of volumes of recurrent tumors [11]: 73% | reduction of metastasis [11, 12]: ~50% | reduction of tumor growth [11, 12]: about 30%
